Reference: patent US20100041892A1, “Therapeutic agent for diabetes” (priority 2005, published 2010)
pEC50: −log10 of the molar value.

Columns and labels:
PPARγ-RXRα heterodimer = molecular target: T1, PPARγ-RXRα heterodimer (Homo sapiens, UniProt P37231); experiment: PPARγ-RXRα heterodimer ligand activity (luciferase reporter, PPARγ:RXRα:4ERPP/CHO-K1 cells); type: cell-based; settings: concentration showing 50% of the maximum luciferase induction rate; CHO-K1 reporter cells, one day incubation
T1 construct: expressed in transfected cells; host or cells: CHO-K1 (PPARγ:RXRα:4ERPP/CHO-K1)
T1 sequence (P37231 1-477 isoform P37231-2): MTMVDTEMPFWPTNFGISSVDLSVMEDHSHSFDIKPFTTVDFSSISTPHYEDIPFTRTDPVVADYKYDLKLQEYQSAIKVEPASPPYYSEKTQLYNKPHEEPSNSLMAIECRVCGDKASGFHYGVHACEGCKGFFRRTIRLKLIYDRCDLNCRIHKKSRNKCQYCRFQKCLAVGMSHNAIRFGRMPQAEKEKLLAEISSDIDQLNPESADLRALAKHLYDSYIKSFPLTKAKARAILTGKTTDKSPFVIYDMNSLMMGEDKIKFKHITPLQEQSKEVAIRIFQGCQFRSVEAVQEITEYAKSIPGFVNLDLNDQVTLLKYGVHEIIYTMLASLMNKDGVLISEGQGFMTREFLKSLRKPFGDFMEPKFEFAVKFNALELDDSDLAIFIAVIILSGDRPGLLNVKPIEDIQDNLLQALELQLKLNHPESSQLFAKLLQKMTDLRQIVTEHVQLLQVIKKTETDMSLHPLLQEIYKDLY
T1 sequence (P19793 1-462 partner): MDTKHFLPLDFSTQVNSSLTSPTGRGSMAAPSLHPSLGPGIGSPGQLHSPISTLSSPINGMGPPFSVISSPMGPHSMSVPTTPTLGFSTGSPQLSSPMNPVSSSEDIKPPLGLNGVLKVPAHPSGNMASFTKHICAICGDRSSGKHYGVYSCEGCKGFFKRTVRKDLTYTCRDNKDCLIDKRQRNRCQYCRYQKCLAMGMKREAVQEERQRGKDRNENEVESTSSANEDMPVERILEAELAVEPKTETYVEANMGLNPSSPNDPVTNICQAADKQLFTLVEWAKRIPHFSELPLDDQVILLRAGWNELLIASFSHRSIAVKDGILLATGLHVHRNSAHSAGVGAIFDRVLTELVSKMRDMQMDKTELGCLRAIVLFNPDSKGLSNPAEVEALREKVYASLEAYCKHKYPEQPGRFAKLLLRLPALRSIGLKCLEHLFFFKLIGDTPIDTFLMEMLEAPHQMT
Procedure: The PPARγ:RXRα:4ERPP/CHO-K1 cells described in WO03/099793 were cultured in a Ham F12 medium [manufactured by Life Technologies, Inc., US] containing 10% calf fetal serum [manufactured by Life Technologies, Inc., US], sown in a 96-well white plate (manufactured by Corning Coster Corporation, US] at 1×10^4 cells/well, and incubated overnight in a carbon dioxide gas incubator at 37° C.
Then, the medium was removed from the 96 well white plate, 45 μl of Ham F12-medium containing 0.1% fatty acid-free bovine serum albumin (BSA) and a test compound (5 μl) were added, and the cells were incubated for one day in a carbon dioxide gas incubator at 37° C. The medium was removed, 20 μl of PicaGene 7.5 (manufactured by Wako Pure Chemical Industries, Ltd.) 2-fold diluted with HBSS (HANKS' BALANCED SALT SOLUTION) [manufactured by BIO WHITTAKER, US] was added. After stirring, the luciferase activity was determined using the 1420 ARVO Multilabel Counter [manufactured by PerkinElmer, US].
The induction rate was calculated from the luciferase activity of each test compound based on the luciferase activity of the test compound non-administration group as 1. The test compound concentration and the induction rate were analyzed by PRISM [manufactured by GraphPad Software, Inc., US] to calculate EC50 value (compound concentration showing 50% of the maximum value of induction rate) of the test compound.

Structure (SMILES)	pEC50 (PPARγ-RXRα heterodimer)	melting point [°C]
COCCOc1ccc(CCCOC(=O)NS(=O)(=O)c2ccc(Cl)cc2)c(Oc2ncc(C(F)(F)F)cc2Cl)c1 [Example 32, 3-[2-{[3-chloro-5-(trifluoromethyl)pyridin-2-yl]oxy}-4-(2-methoxyethoxy)phenyl]propyl [(4 chlorophenyl)sulfonyl]carbamate]	8.18	147 to 150
COCCOc1ccc(CCCOC(=O)NCC2CC2)c(Oc2ncc(C(F)(F)F)cc2Cl)c1 [Example 51, 3-[2-{[3-chloro-5-(trifluoromethyl)pyridin-2-yl]oxy}-4-(2-methoxyethoxy)phenyl]propyl (cyclopropylmethyl)carbamate]	7.70	87.8 to 87.9
CCCCCS(=O)(=O)NC(=O)OCc1ccc(OS(=O)(=O)CCC)cc1Oc1ncc(C(F)(F)F)cc1Cl [Example 64, 3-{[3-chloro-5-(trifluoromethyl)pyridin-2-yl]oxy}-4-[({[(pentylsulfonyl)amino]carbonyl}oxy)methyl]phenyl propane-1-sulfonate]	8.06	86 to 89
CCCCCS(=O)(=O)NC(=O)CCc1ccc(OCCOC)cc1OCc1nc(-c2ccccc2)oc1C [Example 173, 3-{4-(2-methoxyethoxy)-2-[(5-methyl-2-phenyl-1,3-oxazol-4-yl)methoxy]phenyl}-N-(pentylsulfonyl)propanamide]	8.01	95.9 to 96.7
CCCCCS(=O)(=O)NC(=O)/C(C)=C/c1ccc(OCCCOC)cc1Oc1ncc(Cl)cc1Cl [Example 190, (2E)-3-[2-[(3,5-dichloropyridin-2-yl)oxy]-4-(3-methoxypropoxy)phenyl]-2-methyl-N-(pentylsulfonyl)acrylamide]	7.82	116 to 116.8
CCCCCS(=O)(=O)NC(=O)/C=C/c1cc(OC(C)C)nn1Cc1ncc(C(F)(F)F)cc1Cl [Example 199, (2E)-3-(1-{[3-chloro-5-(trifluoromethyl)pyridin-2-yl]methyl}-3-isopropoxy-1H-pyrazol-5-yl)-N-(pentylsulfonyl)acrylamide]	7.89	
CCCCCS(=O)(=O)NC(=O)C(C)Cc1ccc(OCCOC)cc1Oc1ncc(C(F)(F)F)cc1Cl (stereo not shown) [Example 209, 3-[2-{[3-chloro-5-(trifluoromethyl)pyridin-2-yl]oxy}-4-(2-methoxyethoxy)phenyl]-2-methyl-N-(pentylsulfonyl)propanamide]	8.64	
C/C(=C\c1ccc(OC(C)C)cc1Oc1ncc(C(F)(F)F)cc1Cl)C(=O)NS(=O)(=O)NC1CCC(C)CC1 (stereo not shown) [Example 223, (2E)-3-(2-{[3-chloro-5-(trifluoromethyl)pyridin-2-yl]oxy}-4-isopropoxyphenyl)-2-methyl-N-{[(4-methylcyclohexyl)amino]sulfonyl}acrylamide]	7.26	176.8 to 177.2
CCCCCNS(=O)(=O)NC(=O)/C(C)=C/c1ccc(OC(C)C)cc1Oc1ncc(C(F)(F)F)cc1Cl [Example 224, (2E)-3-(2-{[3-chloro-5-(trifluoromethyl)pyridin-2-yl]oxy}-4-isopropoxyphenyl)-2-methyl-N-[(pentylamino)sulfonyl]acrylamide]	7.80	137.8 to 138.5
C/C(=C\c1ccc(OC(C)C)cc1Oc1ncc(C(F)(F)F)cc1Cl)C(=O)NS(=O)(=O)NCCc1cccs1 [Example 225, (2E)-3-(2-{[3-chloro-5-(trifluoromethyl)pyridin-2-yl]oxy}-4-isopropoxyphenyl)-2-methyl-N-({[2-(2-thienyl)ethyl]amino}sulfonyl)acrylamide]	7.80	130 to 131
CCCCCNS(=O)(=O)NC(=O)/C(C)=C/c1ccc(OCCOC)cc1Oc1ncc(C(F)(F)F)cc1Cl [Example 226, (2E)-3-[2-{[3-chloro-5-(trifluoromethyl)pyridin-2-yl]oxy}-4-(2-methoxyethoxy)phenyl]-2-methyl-N-[(pentylamino)sulfonyl]acrylamide]	8.07	152.5 to 153
CCCCCS(=O)(=O)NC(=O)/C=C/c1ccc(OCCC(C)(C)O)cc1Oc1ncc(C(F)(F)F)cc1Cl [Example 248, (2E)-3-[2-{[3-chloro-5-(trifluoromethyl)pyridin-2-yl]oxy}-4-(3-hydroxy-3-methylbutoxy)phenyl]-N-(pentylsulfonyl)acrylamide]	7.74	135.5 to 136
CCCCCS(=O)(=O)NC(=O)/C=C/c1ccc(OCCCOC)cc1Oc1ncc(C(F)(F)F)cc1Cl [Example 251, (2E)-3-[2-{[3-chloro-5-(trifluoromethyl)pyridin-2-yl]oxy}-4-(3-methoxypropoxy)phenyl]-N-(pentylsulfonyl)acrylamide]	8.13	
CCCCCS(=O)(=O)NC(=O)CCc1ccc(OCCCOCCOC)cc1Oc1ncc(C(F)(F)F)cc1Cl [Example 255, 3-{2-{[3-chloro-5-(trifluoromethyl)pyridin-2-yl]oxy}-4-[3-(2-methoxyethoxy)propoxy]phenyl}-N-(pentylsulfonyl)propanamide]	8.41	95 to 95.8
CCCCCS(=O)(=O)NC(=O)/C=C/c1ccc(OCCOCCOC)cc1Oc1ncc(C(F)(F)F)cc1Cl [Example 256, (2E)-3-{2-{[3-chloro-5-(trifluoromethyl)pyridin-2-yl]oxy}-4-[2-(2-methoxyethoxy)ethoxy]phenyl}-N-(pentylsulfonyl)acrylamide]	7.89	81 to 83
CCCCCS(=O)(=O)NC(=O)CCc1ccc(OCCOCCOC)cc1Oc1ncc(C(F)(F)F)cc1Cl [Example 257, 3-{2-{[3-chloro-5-(trifluoromethyl)pyridin-2-yl]oxy}-4-[2-(2-methoxyethoxy)ethoxy]phenyl}-N-(pentylsulfonyl)propanamide]	8.68	76 to 77.5
CCCCCS(=O)(=O)NC(=O)CCc1ccc(OCCCOC)cc1Oc1ncc(C(F)(F)F)cc1Cl [Example 258, 3-[2-{[3-chloro-5-(trifluoromethyl)pyridin-2-yl]oxy}-4-(3-methoxypropoxy)phenyl]-N-(pentylsulfonyl)propanamide]	8.96	115 to 115.2
COCCOc1ccc(CCCOC(=O)NS(=O)(=O)N2Cc3ccccc3C2)c(Oc2ncc(C(F)(F)F)cc2Cl)c1 [Example 371, 3-[2-{[3-chloro-5-(trifluoromethyl)pyridin-2-yl]oxy}-4-(2-methoxyethoxy)phenyl]propyl (1,3-dihydro-2H-isoindol-2-ylsulfonyl)carbamate]	8.33	
COCCOc1ccc(CCCOC(=O)NS(=O)(=O)NCCc2ccccn2)c(Oc2ncc(Cl)cc2Cl)c1 [Example 427, 3-[2-[(3,5-dichloropyridin-2-yl)oxy]-4-(2-methoxyethoxy)phenyl]propyl {[(2-pyridin-2-ylethyl)amino]sulfonyl}carbamate]	7.66	
CCCCCS(=O)(=O)NC(=O)/C=C/c1ccc(OCCCC#N)cc1Oc1ncc(C(F)(F)F)cc1Cl [Example 451, (2E)-3-[2-{[3-chloro-5-(trifluoromethyl)pyridin-2-yl]oxy}-4-(3-cyanopropoxy)phenyl]-N-(pentylsulfonyl)acrylamide]	7.82	
